Assay results as given in US20240123045A1, “NONAUTOLOGOUS MULTI-STRESSED CANCER CELLS AND USES THEREOF FOR VACCINATING AND TREATING CANCERS” (BRENUS PHARMA, priority 2021, published 2024).
Like-named read-outs stand apart in the source and are kept apart here.

What was measured:
[1] = tested on: HT-29; test: Cytotoxic assay (IC50) in HT-29; type: cell-based, human
Excerpt: (§1) DS-B: cells were exposed to a chemical stress comprising a chemical stimulation with chemotherapeutic agents commonly used for the colorectal cancer: 5-FU (Sigma, F6627), oxaliplatin (Sigma, Y0000271) or SN-38 (7-ethyl-10-hydroxy-camptothecin) (Sigma, H0165). In particular, the association of a chemotherapeutic agent with each cell line was based on literature assumptions (Table 3), and further on the degree of resistance of the cell line to each chemotherapeutic agent. For each cell line, this resistance level to each chemotherapeutic agent was assessed by determining the half maximal inhibitory concentration (IC50) in a cytotoxic assay.

[2] = tested on: HCT-116; test: Cytotoxic assay (IC50) in HCT-116; type: cell-based, human
Excerpt: as §1

[3] = tested on: LoVo; test: Cytotoxic assay (IC50) in LoVo; type: cell-based, human
Excerpt: as §1

[4] = tested on: SW480; test: Cytotoxic assay (IC50) in SW480; type: cell-based; conditions: Homo sapiens, SW480 cell line
Excerpt: as §1

[5] = tested on: CD66 (CEA); test: FACS marker expression: CD66; type: cell-based, human
Experimental: (§2) A comparison of marker expression was carried out to validate each DS-A and DS-B.

[6] = tested on: CD243 (MDR-1); test: FACS marker expression: CD243; type: cell-based, human; conditions: LoVo cells treated with 5-FU
Experimental: as §2
(§3) Finally, the vaccine composition (DP or “STC-1010”) could be formulated by pooling all six DS (3 DS-A—one for each cell line; and 3 DS-B—one for each cell line) in 100 μL doses (each comprising 3 million cells).

[7] = tested on: colorectal human cell lines; conditions: according to the literature; cited from earlier work
[8] = tested on: CD107 (LAMP-1); test: FACS marker expression: CD107; type: cell-based, human; conditions: HT-29 cells treated with oxaliplatin
Experimental: as §2, §3

[9] = tested on: CD54 (ICAM-1); test: FACS marker expression: CD54; type: cell-based, human; conditions: HT-29 cells treated with oxaliplatin
Experimental: as §2

[10] = tested on: CD95 (FAS receptor); test: FACS marker expression: CD95; type: cell-based, human; conditions: HT-29 cells treated with oxaliplatin
Experimental: as §2

[11] = HT-29 cell line, cytotoxic assay, read-out: IC50
[12] = HCT-116 cell line, cytotoxic assay, read-out: IC50
[13] = LoVo cell line, cytotoxic assay, read-out: IC50

SMILES	IC50 ([1]; Homo sapiens, HT-29) [nM]	IC50 ([2]; Homo sapiens, HCT-116) [nM]	IC50 ([3]; Homo sapiens, LoVo) [nM]	IC50 [4] [nM]	CD66 expression as compared to unstressed cells ([5]; LoVo cells treated with 5-FU)	CD243 expression as compared to unstressed cells [6]	Resistance cell lines [7]	IC50 [1, 11] [nM]	IC50 [2, 12] [nM]	IC50 [3, 13] [nM]	CD107 expression as compared to unstressed cells [8]	CD54 expression as compared to unstressed cells [9]	CD95 expression as compared to unstressed cells [10]	CD66 expression as compared to unstressed cells ([5]; HCT-116 cells treated with SN-38)
O=c1[nH]cc(F)c(=O)[nH]1 [5-FU, fluorouracil]	3600	17000	2400	23100	overexpression	overexpression	HCT-116, HT-29, SW48, SW480	–	–	–	–	–	–	–
O=C1[O][Pt]2([NH][C@@H]3CCCC[C@H]3[NH]2)[O]C1=O [Oxaliplatin, oxaliplatin]	–	–	–	–	–	–	HCT-116, HT-29, LoVo, SW48	460	600	1100	overexpression	overexpression	overexpression	–
CCc1c2c(nc3ccc(O)cc13)-c1cc3c(c(=O)n1C2)COC(=O)[C@]3(O)CC [SN-38, 7-ethyl-10-hydroxy-camptothecin]	–	–	–	–	–	–	HCT-116, HT-29, SW48	130	50	22	–	–	–	overexpression
